We go through 14 molecules from PubChem BioAssay (NCI).

Some test systems named below: MOLT-4 leukemia; NCI-H460 lung; SNB-75 CNS; A549 NSCLC; MDA-N; UACC-62 melanoma; SK-MEL-28 melanoma; EKVX NSCLC; CAKI-1 renal; K-562 leukemia.
Holding throughout (test): NCI tumour cell line growth inhibition, 48 h

Each structure is given as a SMILES string. Where “and” joins values, the source holds several entries; their conditions need not be identical. Equal values may be shown once.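 Compound exposure: 48 hours, 5 concentrations, 96-well plates. TGI marks complete inhibition of growth.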 A value given as a limit tells only on which side of the number the result lay.

Consider `S=C(/N=c1\sc(Nc2ccc(Cl)cc2)nc2sc3c(c12)CCN(N1CCc2c(sc4nc(Nc5ccc(Cl)cc5)s/c(=N\C(=S)Nc5ccc(Cl)cc5)c24)C1)C3)Nc1ccc(Cl)cc1`, for which the TGI was above 100 µM in the assay on MOLT-4 leukemia; above 100 µM in the assay on NCI-H460 lung; 64.5 µM in the assay with SNB-75 CNS; above 100 µM with A549 NSCLC; 30.8 µM in the assay on MDA-N; 48 µM in the assay on UACC-62 melanoma. The TGI in the assay with SK-MEL-28 melanoma and in the assay on EKVX NSCLC was above 100 µM throughout.
For `COc1ccc(S(=O)(=O)N2C(=O)CCC2C(=O)NN)cc1` (stereo not drawn), the TGI in the assay on MOLT-4 leukemia, in the assay on NCI-H460 lung, with SNB-75 CNS, in the assay with A549 NSCLC, with MDA-N and in the assay on UACC-62 melanoma was above 100 µM in each case. Further, the TGI in the assay with CAKI-1 renal, in the assay with SK-MEL-28 melanoma, with K-562 leukemia and in the assay with EKVX NSCLC was above 100 µM throughout.
As for `CCOC(=O)c1c(-c2ccccc2)c(-c2ccccc2)cn1C`, the TGI with MOLT-4 leukemia, in the assay on NCI-H460 lung, in the assay on SNB-75 CNS, in the assay on A549 NSCLC, in the assay on MDA-N and with UACC-62 melanoma was above 10 µM each time. In addition, the TGI in the assay with K-562 leukemia and with EKVX NSCLC was above 10 µM each time.
As for `Cc1cc2c([N+](=O)[O-])cc3c(c2o1)C(=O)C=CC3=O`, the TGI with MOLT-4 leukemia was 2.94 µM; with NCI-H460 lung, 36.7 µM; with SNB-75 CNS, above 61.5 µM; with A549 NSCLC, 37.2 µM; in the assay with MDA-N, 28 µM; with UACC-62 melanoma it was 28.9 µM. Besides, the TGI in the assay with CAKI-1 renal was 2.68 µM; in the assay on SK-MEL-28 melanoma, above 20.8 µM; in the assay on K-562 leukemia, above 100 µM; in the assay with EKVX NSCLC it was 11.5 µM.
`Cc1cc(-c2nc3ccccc3s2)ccc1NC(=O)[C@@H](N)CCCCN`: the TGI with MOLT-4 leukemia is 17.1 µM; in the assay on NCI-H460 lung it was 20.8 µM; with SNB-75 CNS it was 13 µM; with A549 NSCLC, 12.7 µM; in the assay with MDA-N it was 9.75 µM; in the assay on UACC-62 melanoma, 29.2 µM. Moreover, the TGI in the assay on CAKI-1 renal was 20.8 µM; in the assay with SK-MEL-28 melanoma, 31.3 µM; in the assay on K-562 leukemia, above 54 µM; with EKVX NSCLC, 25.1 µM.
Regarding `COC(C)(C)[C@@H](O)[C@H]1C[C@H](C)[C@@]2(CC[C@]3(C)[C@@H]2CC[C@@H]2[C@@]4(C)CC[C@@H](OC(C)=O)C(C)(C)[C@@H]4C[C@@H](OC4OC(COC(C)=O)C(O)C(O)C4O)[C@]23C)O1` (stereo partly drawn), the TGI with MOLT-4 leukemia stood at 10.7 µM; in the assay with NCI-H460 lung, 15.6 µM; in the assay on SNB-75 CNS, 16.5 µM; in the assay with A549 NSCLC it was 15.3 µM; in the assay with MDA-N, 17.9 µM; with UACC-62 melanoma it was 18.6 µM. Also, the TGI was 24.1 µM with CAKI-1 renal, 20.4 µM with SK-MEL-28 melanoma, 21.3 µM in the assay on K-562 leukemia and 19.5 µM in the assay on EKVX NSCLC.
In the case of `CC(C)=CCC/C(C)=C/COC(C)(C)C1=CCC(C)CC1` (stereo not drawn) (tested in a mixture with another compound), the TGI with MOLT-4 leukemia was 36.2 µM; with NCI-H460 lung, above 100 µM; with SNB-75 CNS, above 100 µM; with A549 NSCLC it was above 100 µM; in the assay on MDA-N, above 100 µM; in the assay with UACC-62 melanoma, above 100 µM. Further, the TGI in the assay on CAKI-1 renal, with SK-MEL-28 melanoma and in the assay on EKVX NSCLC was above 100 µM throughout.
Consider `CC1(C)C2CC(=O)C1(C)C(O)C2Br` (stereo not drawn), for which the TGI in the assay with MOLT-4 leukemia, in the assay on NCI-H460 lung, with A549 NSCLC, in the assay with MDA-N, with UACC-62 melanoma and in the assay on SK-MEL-28 melanoma was above 100 µM in each case. In addition, the TGI in the assay with K-562 leukemia and in the assay with EKVX NSCLC was above 100 µM throughout.
`COc1cc2c(cc1OC)[C@H]1CN3CCC[C@H]3C=C1c1ccc(OC)c(O)c1-2`: the TGI in the assay on NCI-H460 lung is 0.00509 µM and 0.0106 µM; in the assay on MDA-N it was 0.112 µM; in the assay with UACC-62 melanoma, 0.000267 µM; in the assay on CAKI-1 renal it was 0.000133 µM.
As to `C[C@]12CC[C@@H]3c4ccc(O)cc4CC[C@H]3[C@@H]1C/C(=C\c1ccncc1)[C@@H]2O`, the TGI in the assay on MOLT-4 leukemia is 40.8 µM; in the assay with NCI-H460 lung, 68.2 µM; in the assay with SNB-75 CNS, 23.6 µM; in the assay with A549 NSCLC, above 100 µM; in the assay with MDA-N, above 100 µM; with UACC-62 melanoma, 25.6 µM. Moreover, the results for the TGI with CAKI-1 renal, with SK-MEL-28 melanoma and with EKVX NSCLC were 75.2 µM, above 100 µM and above 100 µM, respectively.
Take `Oc1[nH]c2ccc(Br)cc2c1N=NC(=S)Nc1ccc(F)cc1`: the TGI is 29.6 µM in the assay on MOLT-4 leukemia; 15.3 µM in the assay with NCI-H460 lung; 30 µM in the assay with SNB-75 CNS; 14.4 µM in the assay with MDA-N; 13.8 µM in the assay on UACC-62 melanoma; 19.3 µM in the assay on CAKI-1 renal. The TGI was 39.8 µM in the assay on SK-MEL-28 melanoma and 67.3 µM in the assay with K-562 leukemia.
For `C(=Nc1ccc(-c2nc3ccccc3o2)cc1)c1ccco1`, the TGI with MOLT-4 leukemia, in the assay on SNB-75 CNS, in the assay with MDA-N, in the assay on CAKI-1 renal, in the assay with SK-MEL-28 melanoma and in the assay on EKVX NSCLC was above 100 µM throughout.
Take `COC(=O)c1cc2c(cc1CC1Cc3cc4c(cc3C1)CCC4)CCC2`: the TGI is 36.9 µM with MOLT-4 leukemia; above 100 µM in the assay on NCI-H460 lung; above 100 µM in the assay on SNB-75 CNS; above 100 µM with A549 NSCLC; above 100 µM with MDA-N; above 100 µM in the assay with CAKI-1 renal. In addition, the TGI in the assay on SK-MEL-28 melanoma was 80.4 µM; in the assay on K-562 leukemia, above 100 µM; in the assay with EKVX NSCLC, above 100 µM.
`N#CCc1nc(-c2ccccc2)n[nH]1`: the TGI in the assay on MOLT-4 leukemia, in the assay with NCI-H460 lung, in the assay with SNB-75 CNS, in the assay on A549 NSCLC, in the assay on MDA-N and with UACC-62 melanoma was above 100 µM throughout. Moreover, the TGI in the assay on CAKI-1 renal, in the assay on K-562 leukemia and in the assay with EKVX NSCLC was above 100 µM throughout.
